Measured values: patent publication US8372854B2, “Pyrrolo[2,3-D]pyrimidine compounds” (Pfizer Inc., priority 2009, dated 2013)
pIC50: −log10 of the molar value.

Tests used:
Type in all cases: biochemical
JAK1 = biological target: T1, JAK1 (Homo sapiens, UniProt P23458); assay: JAK enzymatic assay (peptide mobility shift), JAK1; conditions: recombinant JAK1 20 nM, ATP 40 μM, 1 μM IRS-1 peptide, 240 minutes
T1 construct: purchased Invitrogen Corporation, Madison, Wis; PV4775
Source text: (§1) Recombinant JAK1 (Catalog Number PV4775), JAK2 (Catalog Number PV4210) and JAK3 (Catalog Number PV3855) were purchased from (Invitrogen Corporation, Madison, Wis.). Tyk2 (His-Tyk2 (888-1182, C936S, C1142S)) used in this study was expressed and purified at Pfizer Laboratories. Adenosine 5′-triphosphate (ATP) was obtained from (Sigma Chemical Company, St. Louis, Mo.). The JAKtide peptide (peptide sequence, FITC-[…]) used for the JAK2 and JAK3 assays and the IRS-1 peptide (peptide sequence, 5-FAM-[…]) used for the JAK1 and Tyk2 assays were purchased from (American Peptide Company, Sunnyvale, Calif.). Coating Reagent 3 was purchased from (Caliper Life Sciences, Hopkinton, Mass.).
(§2) A peptide mobility shift assay was used to quantify the phosphorylation of the JAKtide (JAK2 and JAK3) or the IRS-1 peptide ([…] and Tyk2). Reactions were carried out in a 384-well plate (Matrical MP-101) in a 10 μL total volume. Reaction mixtures contained 20 mM HEPES, pH 7.4, 10 mM magnesium chloride, 0.01% bovine serum albumin (BSA), 0.0005% Tween-20, ATP (4 μM for JAK2 and JAK3, 40 μM for JAK1 and 7 μM for Tyk2)), 2% DMSO and 1 μM peptide substrate (JAKtide for JAK2 and JAK3 and IRS-1 peptide for JAK1 and Tyk2). Compounds were diluted serially in 100% dimethyl sulfoxide and tested in an 11 point dose response in duplicate or quadruplicate (200 nl of compound/DMSO was added per 10 μL reaction). The reactions were initiated by the addition of enzyme to the final concentration of 2 nM JAK2, 1 nM JAK3, 12 nM Tyk2 or 20 nM JAK1. The assay was run for 240 minutes for JAK1, 150 minutes for JAK2, 90 minutes for JAK3 and 70 minutes for Tyk2. The assays were stopped at the specified times with 20 uL of 140 mM HEPES, 22.5 mM EDTA and 0.15% Coating Reagent 3. The plates were placed on a LabChip 3000 (LC3000) instrument from (Caliper Life Sciences) to measure the formation of phosphorylated peptide. Data was analyzed using Hits Well Analyzer Software from (Caliper Life Sciences) to obtain the amount of product formed.
(§3) Data was then imported into an internal application where each data point is expressed as % inhibition based on uninhibited and no enzyme controls. Dose-response data is then fit using a 4 parameter logistic equation (Equation 1) to determine an IC50.
(§4) Where max is the fitted uninhibited value, min is the fitted complete inhibition value, and s is the slope factor.

JAK3 = biological target: T2, JAK3 (Homo sapiens, UniProt P52333); assay: JAK enzymatic assay (peptide mobility shift), JAK3; conditions: recombinant JAK3 1 nM, ATP 4 μM, 1 μM JAKtide peptide, 90 minutes
T2 construct: purchased Invitrogen Corporation, Madison, Wis; PV3855
T2 sequence (P52333 1-1124): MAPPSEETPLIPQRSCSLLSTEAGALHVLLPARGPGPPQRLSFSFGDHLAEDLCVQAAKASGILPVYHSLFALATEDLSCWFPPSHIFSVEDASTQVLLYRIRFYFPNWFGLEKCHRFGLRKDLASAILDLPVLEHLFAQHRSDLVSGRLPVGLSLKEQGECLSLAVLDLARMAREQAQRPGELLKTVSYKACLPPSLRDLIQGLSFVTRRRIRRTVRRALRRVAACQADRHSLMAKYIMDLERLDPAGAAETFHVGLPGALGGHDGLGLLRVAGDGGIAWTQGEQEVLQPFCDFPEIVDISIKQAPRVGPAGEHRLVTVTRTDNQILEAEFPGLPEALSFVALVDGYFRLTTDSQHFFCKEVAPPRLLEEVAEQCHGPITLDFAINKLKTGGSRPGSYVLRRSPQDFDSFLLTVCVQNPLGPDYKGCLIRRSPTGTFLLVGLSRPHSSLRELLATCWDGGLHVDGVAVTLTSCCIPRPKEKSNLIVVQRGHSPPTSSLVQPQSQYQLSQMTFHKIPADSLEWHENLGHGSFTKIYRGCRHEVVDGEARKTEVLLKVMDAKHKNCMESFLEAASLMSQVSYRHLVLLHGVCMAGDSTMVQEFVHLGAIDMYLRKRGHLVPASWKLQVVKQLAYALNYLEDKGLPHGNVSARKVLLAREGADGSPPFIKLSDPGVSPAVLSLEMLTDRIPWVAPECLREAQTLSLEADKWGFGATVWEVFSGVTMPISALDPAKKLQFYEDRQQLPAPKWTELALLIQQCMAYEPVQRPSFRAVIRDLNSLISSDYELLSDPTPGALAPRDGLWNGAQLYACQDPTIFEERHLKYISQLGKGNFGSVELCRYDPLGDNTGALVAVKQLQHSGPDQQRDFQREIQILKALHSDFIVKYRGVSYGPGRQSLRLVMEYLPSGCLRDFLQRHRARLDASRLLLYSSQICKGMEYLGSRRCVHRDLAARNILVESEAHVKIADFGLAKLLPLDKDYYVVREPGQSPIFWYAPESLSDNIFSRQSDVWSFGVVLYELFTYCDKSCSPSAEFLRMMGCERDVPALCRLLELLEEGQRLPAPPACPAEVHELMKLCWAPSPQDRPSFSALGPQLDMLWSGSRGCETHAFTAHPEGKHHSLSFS
Source text: Recombinant JAK1 (Catalog Number PV4775), JAK2 (Catalog Number PV4210) and JAK3 (Catalog Number PV3855) were purchased from (Invitrogen Corporation, Madison, Wis.). Tyk2 (His-Tyk2 (888-1182, C936S, C1142S)) used in this study was expressed and purified at Pfizer Laboratories. Adenosine 5′-triphosphate (ATP) was obtained from (Sigma Chemical Company, St. Louis, Mo.). […] Coating Reagent 3 was purchased from (Caliper Life Sciences, Hopkinton, Mass.).
as §2, §3, §4

JAK2 = biological target: T3, JAK2 (Homo sapiens, UniProt O60674); assay: JAK enzymatic assay (peptide mobility shift), JAK2; conditions: recombinant JAK2 2 nM, ATP 4 μM, 1 μM JAKtide peptide, 150 minutes
T3 construct: purchased Invitrogen Corporation, Madison, Wis; PV4210
Source text: as §1, §2, §3, §4

T3 sequence (O60674 whole entry): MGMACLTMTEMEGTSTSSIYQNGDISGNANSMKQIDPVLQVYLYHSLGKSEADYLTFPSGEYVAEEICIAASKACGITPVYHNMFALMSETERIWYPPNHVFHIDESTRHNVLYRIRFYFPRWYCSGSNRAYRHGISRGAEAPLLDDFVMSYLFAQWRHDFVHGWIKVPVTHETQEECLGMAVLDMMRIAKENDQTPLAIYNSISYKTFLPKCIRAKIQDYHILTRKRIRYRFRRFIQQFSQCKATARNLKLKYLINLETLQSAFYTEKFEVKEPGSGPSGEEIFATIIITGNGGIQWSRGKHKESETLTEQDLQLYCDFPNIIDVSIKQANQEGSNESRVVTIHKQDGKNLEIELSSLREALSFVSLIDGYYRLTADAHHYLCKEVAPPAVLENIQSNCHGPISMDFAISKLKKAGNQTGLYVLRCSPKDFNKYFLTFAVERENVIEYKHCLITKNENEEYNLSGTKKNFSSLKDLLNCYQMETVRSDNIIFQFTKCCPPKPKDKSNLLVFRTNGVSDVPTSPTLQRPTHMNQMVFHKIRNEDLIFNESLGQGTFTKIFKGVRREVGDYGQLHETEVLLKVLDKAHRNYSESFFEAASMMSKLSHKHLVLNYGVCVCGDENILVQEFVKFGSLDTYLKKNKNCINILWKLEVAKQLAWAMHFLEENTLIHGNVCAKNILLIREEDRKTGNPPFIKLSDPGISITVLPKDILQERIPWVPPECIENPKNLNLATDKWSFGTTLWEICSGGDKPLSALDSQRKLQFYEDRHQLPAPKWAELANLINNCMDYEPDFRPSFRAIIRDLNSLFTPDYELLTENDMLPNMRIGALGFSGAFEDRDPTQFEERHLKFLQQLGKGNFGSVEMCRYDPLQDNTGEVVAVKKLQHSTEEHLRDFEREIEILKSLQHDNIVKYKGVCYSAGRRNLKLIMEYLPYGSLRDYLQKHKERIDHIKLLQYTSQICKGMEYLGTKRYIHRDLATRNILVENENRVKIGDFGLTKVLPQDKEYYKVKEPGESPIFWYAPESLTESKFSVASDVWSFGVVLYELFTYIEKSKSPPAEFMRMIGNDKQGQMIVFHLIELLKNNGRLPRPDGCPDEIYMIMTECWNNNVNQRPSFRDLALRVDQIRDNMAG
T1 sequence (P23458 whole entry): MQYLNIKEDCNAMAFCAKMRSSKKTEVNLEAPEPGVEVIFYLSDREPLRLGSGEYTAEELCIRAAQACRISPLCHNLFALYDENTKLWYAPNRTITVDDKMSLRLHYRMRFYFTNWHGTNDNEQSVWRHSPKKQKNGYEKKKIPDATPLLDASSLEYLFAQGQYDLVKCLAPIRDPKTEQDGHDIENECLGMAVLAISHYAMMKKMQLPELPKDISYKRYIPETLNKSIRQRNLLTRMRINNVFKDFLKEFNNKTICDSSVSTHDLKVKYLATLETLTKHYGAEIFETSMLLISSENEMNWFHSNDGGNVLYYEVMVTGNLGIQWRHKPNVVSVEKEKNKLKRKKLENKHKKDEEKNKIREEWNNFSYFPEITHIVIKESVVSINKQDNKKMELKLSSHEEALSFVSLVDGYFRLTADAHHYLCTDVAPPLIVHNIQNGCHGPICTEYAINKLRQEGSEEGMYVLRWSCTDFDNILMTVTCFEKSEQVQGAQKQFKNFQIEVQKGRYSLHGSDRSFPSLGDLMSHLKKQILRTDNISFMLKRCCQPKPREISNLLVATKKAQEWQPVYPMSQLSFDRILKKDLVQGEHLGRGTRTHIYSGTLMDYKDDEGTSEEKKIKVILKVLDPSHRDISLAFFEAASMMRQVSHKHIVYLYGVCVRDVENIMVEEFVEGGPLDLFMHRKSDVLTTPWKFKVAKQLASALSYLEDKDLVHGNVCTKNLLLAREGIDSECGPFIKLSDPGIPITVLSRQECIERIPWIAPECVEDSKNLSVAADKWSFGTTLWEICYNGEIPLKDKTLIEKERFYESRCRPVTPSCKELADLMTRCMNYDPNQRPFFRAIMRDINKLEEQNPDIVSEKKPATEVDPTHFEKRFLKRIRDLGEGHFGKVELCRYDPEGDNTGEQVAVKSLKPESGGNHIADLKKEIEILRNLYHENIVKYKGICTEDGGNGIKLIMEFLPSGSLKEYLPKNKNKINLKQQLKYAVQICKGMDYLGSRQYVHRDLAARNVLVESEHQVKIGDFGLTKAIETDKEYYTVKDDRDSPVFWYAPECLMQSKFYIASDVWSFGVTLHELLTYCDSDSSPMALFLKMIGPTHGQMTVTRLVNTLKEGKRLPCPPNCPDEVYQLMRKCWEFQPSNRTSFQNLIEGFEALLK

Compound | pIC50 (JAK1) | pIC50 (JAK3) | pIC50 (JAK2)
CN(CCO)S(=O)(=O)C[C@H]1CC[C@H](N(C)c2ncnc3[nH]ccc23)CC1 [Example 17, N-(2-hydroxyethyl)-N-methyl-1-{trans-4-[methyl-(7H-pyrrolo[2,3-d]pyrimidin-4-yl)amino]cyclohexyl}-methanesulfonamide] | 7.79 | 6.48 | 7.35
COc1ccc(CNS(=O)(=O)C[C@H]2CC[C@H](N(C)c3ncnc4[nH]ccc34)CC2)cc1 [Example 18, N-(4-methoxybenzyl)-1-{trans-4-[methyl(7H-pyrrolo[2,3-d]-pyrimidin-4-yl)amino]-cyclo-hexyl}methanesulfonamide] | 7.67 | 6.76 | 7.56
CN(c1ncnc2[nH]ccc12)[C@H]1CC[C@H](CS(=O)(=O)NCc2cccnc2)CC1 [Example 19, 1-{trans-4-[methyl(7H-pyrrolo[2,3-d]pyrimidin-4-yl)amino]cyclohexyl}-N-(pyridin-3-ylmethyl)-methanesulfonamide] | 8.03 | 6.42 | 7.24
CN(c1ncnc2[nH]ccc12)[C@H]1CC[C@H](CS(=O)(=O)Nc2ccc(CC#N)cc2)CC1 [Example 20, N-[4-(cyanomethyl)phenyl]-1-{trans-4-[methyl(7H-pyrrolo[2,3-d]pyrimidin-4-yl)amino]cyclohexyl}methane-sulfonamide] | 8.02 | 7.02 | 7.42
CN(c1ncnc2[nH]ccc12)[C@H]1CC[C@H](CS(=O)(=O)Nc2ccc(C#N)cc2)CC1 [Example 21, N-(4-cyanophenyl)-1-{trans-4-[methyl(7H-pyrrolo[2,3-d]pyrimidin-4-yl)amino]cyclohexyl}-methanesulfonamide] | 7.99 | 6.85 | 7.28
CN(c1ncnc2[nH]ccc12)[C@H]1CC[C@H](CS(=O)(=O)Nc2ccn[nH]2)CC1 [Example 22, 1-{trans-4-[methyl(7H-pyrrolo[2,3-d]pyrimidin-4-yl)amino]cyclohexyl}-N-1H-pyrazol-5-yl-methanesulfonamide] | 7.82 | 6.62 | 7.49
Cc1cc(NS(=O)(=O)C[C@H]2CC[C@H](N(C)c3ncnc4[nH]ccc34)CC2)n[nH]1 [Example 23, N-(5-methyl-1H-pyrazol-3-yl)-1-{trans-4-[methyl(7H-pyrrolo[2,3-d]pyrimidin-4-yl)amino]cyclohexyl}-methanesulfonamide] | 7.73 | 6.47 | 7.52
CN(c1ncnc2[nH]ccc12)[C@H]1CC[C@H](CS(=O)(=O)Nc2ccc3[nH]ccc3c2)CC1 [Example 24, N-1H-indol-5-yl-1-{trans-4-[methyl(7H-pyrrolo[2,3-d]-pyrimidin-4-yl)amino]-cyclohexyl}-methanesulfonamide] | 8.78 | 7.25 | 8.34
CN(c1ncnc2[nH]ccc12)[C@H]1CC[C@H](CS(=O)(=O)Nc2ccc(Cl)nc2)CC1 [Example 25, N-(6-chloropyridin-3-yl)-1-{trans-4-[methyl(7H-pyrrolo[2,3-d]pyrimidin-4-yl)-amino]cyclohexyl}-methanesulfonamide] | 7.73 | 6.64 | 7.24
CN(c1ncnc2[nH]ccc12)[C@H]1CC[C@H](CS(=O)(=O)Nc2ccc3[nH]ncc3c2)CC1 [Example 26, N-1H-indazol-5-yl-1-{trans-4-[methyl(7H-pyrrolo[2,3-d]pyrimidin-4-yl)amino]-cyclohexyl}-methanesulfonamide] | 7.72 | 6.76 | 7.40
CN(c1ncnc2[nH]ccc12)[C@H]1CC[C@H](CS(=O)(=O)Nc2ccc3c(c2)OCCCO3)CC1 [Example 27, N-(3,4-dihydro-2H-1,5-benzodioxepin-7-yl)-1-{trans-4-[methyl(7H-pyrrolo[2,3-d]-pyrimidin-4-yl)amino]-cyclo-hexyl}methanesulfonamide] | 8.66 | 7.27 | 8.13
COc1ccc(NS(=O)(=O)C[C@H]2CC[C@H](N(C)c3ncnc4[nH]ccc34)CC2)cn1 [Example 28, N-(6-methoxypyridin-3-yl)-1-{trans-4-[methyl(7H-pyrrolo[2,3-d]pyrimidin-4-yl)amino]cyclohexyl}methane-sulfonamide] | 8.06 | 6.92 | 7.65
CN(Cc1cccc(N)n1)S(=O)(=O)C[C@H]1CC[C@H](N(C)c2ncnc3[nH]ccc23)CC1 [Example 29, N-[(6-aminopyridin-2-yl)methyl]-N-methyl-1-{trans-4-[methyl(7H-pyrrolo[2,3-d]pyrimidin-4-yl)amino]cyclohexyl}-methanesulfonamide] | 7.78 | 6.29 | 7.29
Cc1ccc(NS(=O)(=O)C[C@H]2CC[C@H](N(C)c3ncnc4[nH]ccc34)CC2)cn1 [Example 30, N-(6-methylpyridin-3-yl)-1-{trans-4-[methyl(7H-pyrrolo[2,3-d]pyrimidin-4-yl)amino]cyclohexyl}-methanesulfonamide] | 7.78 | 6.66 | 7.32
CN(c1ncnc2[nH]ccc12)[C@H]1CC[C@H](CS(=O)(=O)NCCc2ccc(Cl)cc2)CC1 [Example 31, N-[2-(4-chlorophenyl)ethyl]-1-{trans-4-[methyl(7H-pyrrolo[2,3-d]pyrimidin-4-yl)amino]cyclohexyl}-methanesulfonamide] | 8.44 | 6.81 | 7.72
CN(c1ncnc2[nH]ccc12)[C@H]1CC[C@H](CS(=O)(=O)N[C@H]2C[C@@H]2c2ccccc2)CC1 [Example 32, 1-{trans-4-[methyl(7H-pyrrolo[2,3-d]pyrimidin-4-yl)amino]cyclohexyl}-N-[(1S,2R)-2-phenylcyclopropyl]-methanesulfonamide] | 8.36 | 6.84 | 7.63
